Test results taken from US20060112439A1, “Delta opioid receptor disruptions, compositions and methods related thereto” (priority 2001, published 2006).

Tested on: mice (F2N1 wild-type and delta-opioid receptor homozygous mutant)
Assay: Metrazol Test (seizure susceptibility; tail vein infusion of pentylenetetrazole)
Assay type: in vivo, mouse
Conditions: n=10, about 5 mg/ml infused via tail vein at about 0.375 ml/min
Description: A metrazol administration test can be used to screen animals for varying susceptibilities to seizures or similar events. For example, a 5 mg/ml solution of metrazol can be infused through the tail vein of a mouse at a rate of, e.g., approximately 0.375 ml/min. The infusion will cause all mice to experience seizures, followed by death. Those mice that enter the seizure stage the soonest are believed to be more prone to seizures.
To screen for phenotypes involving changes in seizure susceptibility, the Metrazol Test was be used. About 5 mg/ml of Metrazol was infused through the tail vein of the mouse at a constant rate of about 0.375 ml/min. The infusion caused all mice to experience seizures. Those mice entering the seizure stage the quickest were thought to be more prone to seizures in general.
The Metrazol test can also be used to screen for phenotypes related to epilepsy. Ten adult F2N1 wild-type control male mice and ten F2N1 homozygous mutant males were used, all derived from the same ES cell line. A fresh solution of about 5 mg/ml pentylenetetrazole in approximately 0.9% NaCl was prepared prior to testing. Mice were weighed and loosely held in a restrainer. After exposure to a heat lamp to dilate the tail vein, mice were continuously infused with the pentylenetetrazole solution using a syringe pump set at a constant flow rate. The following stages were recorded: first twitch (sometimes accompanied by a squeak), beginning of the tonic/clonic seizure, tonic extension and survival time. The dose required for each phase was determined and the latency to each phase was determined between genotypes. Alterations in any stage may indicate an overall imbalance in excitatory or inhibitory neurotransmitter levels.

[1] = F2N1 delta-opioid receptor homozygous mutant (−/−) male mice

SMILES: C1CCc2nnnn2CC1 [metrazol, pentylenetetrazole]
- Dose (average ± std dev) to death [1]: 121.96 ± 31.09 mg/kg
- Dose (average ± std dev) to first twitch [1]: 30.97 ± 5.20 mg/kg
- Dose (average ± std dev) to tonic extension [1]: 97.59 ± 32.27 mg/kg
- Dose (average ± std dev) to tonic/clonic seizure [1]: 53.48 ± 12.44 mg/kg
- Dose (average ± std dev) to death (F2N1 wild-type (+/+) male mice): 181.91 ± 83.20 mg/kg
- Dose (average ± std dev) to first twitch (F2N1 wild-type (+/+) male mice): 28.23 ± 5.58 mg/kg
- Dose (average ± std dev) to tonic extension (F2N1 wild-type (+/+) male mice): 126.54 ± 23.60 mg/kg
- Dose (average ± std dev) to tonic/clonic seizure (F2N1 wild-type (+/+) male mice): 39.62 ± 8.21 mg/kg
